Paper PMC2990587, “Central nervous system penetration and enhancement of temozolomide activity in childhood medulloblastoma models by poly(ADP-ribose) polymerase inhibitor AG-014699” (British Journal of Cancer, 2010)
“Also recorded” adds a separate entry of the source.

Columns and labels:
PARP-1 [1] = target: PARP-1 (Homo sapiens, UniProt P09874); experiment: PARP activity in permeabilised D283Med cells (10H anti-PAR immunoassay); type: cell-based
Method: Inhibition of PARP activity in 5000 exponentially growing D283Med cells was measured following treatment with a range of AG-014699 concentrations (0–1 μM), in comparison with DMSO-only controls. Maximally stimulated PARP activity was measured in replicate samples (n⩾3) of permeabilised cells by immunological detection of the amount of poly(ADP-ribose) (PAR) formed, using 10H anti-PAR antibody, during a 6-min incubation with NAD^+ and oligonucleotide (substrate and activator) by reference to a PAR (Biomol Research Labs, Plymouth, PA, USA) standard curve using a GCLP-validated assay described previously ([Plummer et al, 2005]).

D283Med xenografts = experiment: Tumour growth inhibition in vivo, D283Med xenografts; parameters: species or system mouse
Description: (§1) All of the in vivo experiments were reviewed and approved by the relevant institutional animal welfare committees, and performed according to national law. Female athymic nude mice (CD1 nu/nu; Charles River, Margate, UK) used for anti-tumour studies were maintained and handled in isolators under specific pathogen-free conditions. […], […] and […] (1 × 10^7 exponentially growing cells per mouse, harvested and implanted in growth media) xenografts were established by sub-cutaneous implantation into CD-1 nude mice. […] Treatment was initiated when sufficient number of mice had established tumours to allow randomisation into treatment groups: day 17 for […], day 26 for […] and day 32 for […]. […] For drug combinations, AG-014699 was administered immediately after administering temozolomide. […] Tumour growth delay (TGD) is defined as the time to RTV4 in drug-treated mice compared with the time to RTV4 in control (vehicle alone) mice. Median tumour volume is shown, rather than the mean, as this is generally accepted as the most statistically reliable representation of the average growth rate of tumours in a small group of mice, if a normal distribution of tumour volumes cannot be assumed. Tumour growth delay was calculated as: median time to RTV4 in treated group-median time to RTV4 in control group.

D425Med cells = experiment: XTT growth inhibition, D425Med; type: cell-based, human
Method: (§2) Cell growth inhibition was estimated in exponentially growing D425Med, D283Med and D384Med cells in 96-well plates. Seeding densities of 1 × 10^3, 3 × 10^3 and 3 × 10^3 cells, respectively, ensured exponential growth for the duration of the experiment. At 24 h (D384Med) or 48 h (D283Med and D425Med) after seeding, cells were exposed to varying concentrations of temozolomide, as described in the Results, in the presence or absence of 0.4 μM AG-014699, a concentration previously shown to enhance temozolomide cytotoxicity in adult tumour cell lines ([Thomas et al, 2007]). After 3 days (D425Med and D384Med) or 5 days (D283Med) of culture (equivalent to approximately three cell divisions), the cell viability was quantified using an XTT cell proliferation kit assay (Roche, Mannheim, Germany), according to the manufacturer's instructions. Cell growth was expressed as a percentage in relation to DMSO or 0.4 μM AG-014699-alone controls. The concentration of temozolomide, alone or in combination with AG-014699, that inhibited growth by 50% (GI50) was calculated from computer-generated curves (GraphPad Software, San Diego, CA, USA). The potentiation factor50 (PF50) is defined as the ratio of […]. All data were from at least three independent experiments.

PARP-1 [2] = target: T1, PARP-1 (Mus musculus, UniProt P11103); experiment: PARP activity in brain homogenates after AG-014699 dosing; type: in vivo
T1 construct: from tissue; host or cells: brain of CD-1 nude mice
Method: One or four daily doses of PARP inhibitor AG-014699 (1 mg kg^−1 intraperitoneally (i.p.)) were given to CD-1 nude mice bearing established D283Med xenografts. At 0.5, 2, 6 and 24 h after the initial or fourth daily dose of AG-014699, three animals per time point were bled by cardiac puncture under general anaesthesia, and then killed. Plasma was separated from the blood samples using standard methods and stored at −80°C. The brains and tumours were removed, snap frozen in liquid nitrogen and stored at −80°C before analysis. Blood, tumour and brain tissue were removed from three untreated control animals and processed in the same way.
PARP activity was determined in homogenates of subcutaneous D283Med xenografts and brain tissue (see above). Maximally stimulated PARP activity was measured in replicate samples (n⩾3) of a 1 : 1000 dilution of the homogenate as described for permeabilised D283Med cells (see above). Data were calculated as pmol PAR per mg protein by reference to the PAR standard curve and protein content of the sample and expressed as a percentage of the corresponding tissue from the saline-treated control animals. The mean PARP activity in xenograft and brain samples taken at each time point was expressed as a percentage of the mean PARP activity of control xenografts from untreated mice (n=3).

D283Med cells = experiment: XTT growth inhibition, D283Med; type: cell-based, human
Method: as §2

D384Med xenografts = experiment: Tumour growth inhibition in vivo, D384Med xenografts; parameters: species or system mouse
Description: as §1

Sequence of PARP-1 (Homo sapiens, UniProt P09874) (P09874 whole entry): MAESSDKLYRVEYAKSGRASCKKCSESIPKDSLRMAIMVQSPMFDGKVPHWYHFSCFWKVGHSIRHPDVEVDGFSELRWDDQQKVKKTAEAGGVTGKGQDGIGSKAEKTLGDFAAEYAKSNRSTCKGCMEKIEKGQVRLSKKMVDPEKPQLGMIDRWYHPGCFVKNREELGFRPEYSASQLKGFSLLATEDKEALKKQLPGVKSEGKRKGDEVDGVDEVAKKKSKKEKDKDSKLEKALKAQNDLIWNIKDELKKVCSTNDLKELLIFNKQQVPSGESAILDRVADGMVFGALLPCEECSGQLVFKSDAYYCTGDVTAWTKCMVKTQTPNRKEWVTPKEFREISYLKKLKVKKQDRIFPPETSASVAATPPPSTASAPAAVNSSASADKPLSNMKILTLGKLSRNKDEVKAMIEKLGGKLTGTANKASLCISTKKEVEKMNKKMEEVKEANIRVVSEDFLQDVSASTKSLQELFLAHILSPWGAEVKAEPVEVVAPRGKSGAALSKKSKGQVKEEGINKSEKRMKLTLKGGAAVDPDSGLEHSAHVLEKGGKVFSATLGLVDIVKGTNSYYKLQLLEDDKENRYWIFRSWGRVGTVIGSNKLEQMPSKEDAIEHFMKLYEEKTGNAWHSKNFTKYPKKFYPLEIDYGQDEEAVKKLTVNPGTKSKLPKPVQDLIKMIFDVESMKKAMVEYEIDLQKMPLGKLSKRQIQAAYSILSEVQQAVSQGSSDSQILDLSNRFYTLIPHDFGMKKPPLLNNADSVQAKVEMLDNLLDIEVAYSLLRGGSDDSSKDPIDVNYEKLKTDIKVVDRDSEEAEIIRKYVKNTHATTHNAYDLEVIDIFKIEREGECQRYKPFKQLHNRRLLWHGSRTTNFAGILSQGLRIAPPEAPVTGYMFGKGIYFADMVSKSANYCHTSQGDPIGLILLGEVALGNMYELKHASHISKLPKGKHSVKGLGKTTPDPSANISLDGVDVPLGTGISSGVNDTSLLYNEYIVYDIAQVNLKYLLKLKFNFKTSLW
T1 sequence (P11103 whole entry): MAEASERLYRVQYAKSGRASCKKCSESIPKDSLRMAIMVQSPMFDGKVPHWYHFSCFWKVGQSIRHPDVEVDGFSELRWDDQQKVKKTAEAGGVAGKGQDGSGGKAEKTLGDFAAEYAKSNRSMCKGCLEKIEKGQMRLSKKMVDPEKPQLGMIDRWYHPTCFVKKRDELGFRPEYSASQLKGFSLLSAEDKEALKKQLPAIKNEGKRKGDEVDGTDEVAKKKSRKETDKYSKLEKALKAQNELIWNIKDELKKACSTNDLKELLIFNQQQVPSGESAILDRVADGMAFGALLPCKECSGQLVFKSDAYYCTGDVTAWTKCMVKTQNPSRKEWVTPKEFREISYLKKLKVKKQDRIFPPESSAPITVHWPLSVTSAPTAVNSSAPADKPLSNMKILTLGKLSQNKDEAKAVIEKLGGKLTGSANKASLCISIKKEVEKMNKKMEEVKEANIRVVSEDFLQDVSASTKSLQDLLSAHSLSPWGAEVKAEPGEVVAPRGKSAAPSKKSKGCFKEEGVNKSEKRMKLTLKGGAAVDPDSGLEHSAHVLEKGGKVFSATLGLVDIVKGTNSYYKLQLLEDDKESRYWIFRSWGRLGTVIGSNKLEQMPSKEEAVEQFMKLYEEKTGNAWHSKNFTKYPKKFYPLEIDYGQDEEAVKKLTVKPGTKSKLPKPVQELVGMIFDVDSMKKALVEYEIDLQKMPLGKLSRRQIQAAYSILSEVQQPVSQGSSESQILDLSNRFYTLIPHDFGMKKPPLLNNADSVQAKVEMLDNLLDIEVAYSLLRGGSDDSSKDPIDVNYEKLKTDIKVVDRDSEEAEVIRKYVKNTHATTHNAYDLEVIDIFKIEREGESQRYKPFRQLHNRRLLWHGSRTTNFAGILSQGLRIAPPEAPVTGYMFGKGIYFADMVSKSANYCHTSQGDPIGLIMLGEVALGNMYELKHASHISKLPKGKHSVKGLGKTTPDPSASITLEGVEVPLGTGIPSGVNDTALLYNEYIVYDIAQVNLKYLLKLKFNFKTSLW

## CNCc1ccc(-c2[nH]c3cc(F)cc4c3c2CCNC4=O)cc1 [AG-014699]
PARP-1 [1]; 0.1 μM AG-014699
  Inhibition of PARP-1 activity: 80%
PARP-1 [1]; 0.4 μM AG-014699
  Inhibition of PARP-1 activity: > 95%
PARP-1 [1]; D283 Med, 0.1 μM AG-014699
  inhibition at 0.1 µM: 81.1%
PARP-1 [1]; D283 Med, 0.4 μM AG-014699
  inhibition at 0.4 µM: 96.8%
PARP-1 [1]; D283 Med, 1 μM AG-014699
  inhibition at 1 µM: 97.1%
D283Med xenografts; D283Med-bearing mice, daily x5, TMZ 68 mg kg−1 p.o., AG-014699 1 mg kg−1 i.p.
  Median nadir body weight (% starting weight): 100 % starting weight
D283Med xenografts; D283Med, daily x5, TMZ 68 mg kg−1 p.o., AG-014699 1 mg kg−1 i.p.
  Median time to RTV4: 8 days
D283Med xenografts; D283Med, mice with regression/group
  Complete regressions: 0/5
D283Med xenografts; D283Med, versus control time to RTV4
  Tumour growth delay: 1 days
D425Med cells; D425Med (MGMT-deficient), 0.4 μM AG-014699
  Sensitisation to temozolomide by AG-014699: not sensitised; also recorded: no sensitisation; also recorded: did not enhance temozolomide sensitivity
D425Med cells; D425Med, 0.4 μM, data not shown
  Growth inhibition by AG-014699 alone: not growth inhibitory
D425Med cells; D425Med, potentiation of temozolomide by 0.4 μM AG-014699
  PF50: 0.7±0.4
PARP-1 [2]; 24 h after fourth daily dose 1 mg kg−1 i.p.
  PARP activity in brain: near-normal activity
PARP-1 [2]; 24 h after single dose 1 mg kg−1 i.p.
  Reduction of PARP activity in brain: approximately 40%
PARP-1 [2]; abstract, time not stated
  Reduction of PARP activity in brain tissue: ≥ 75%
PARP-1 [2]; first 2 h after single dose 1 mg kg−1 i.p.
  Reduction of PARP activity in brain: around 75%
D283Med cells; D283Med (MMR-defective), 0.4 μM AG-014699
  Sensitisation to temozolomide by AG-014699: 20 fold
D283Med cells; D283Med, 0.4 μM, data not shown
  Growth inhibition by AG-014699 alone: not growth inhibitory
D283Med cells; D283Med, potentiation of temozolomide by 0.4 μM AG-014699
  PF50: 19±4.7
D384Med xenografts; D384Med-bearing mice, daily x5, TMZ 68 mg kg−1 p.o., AG-014699 1 mg kg−1 i.p.
  Median nadir body weight (% starting weight): 96 % starting weight
D384Med xenografts; D384Med, daily x5, TMZ 68 mg kg−1 p.o., AG-014699 1 mg kg−1 i.p.
  Median time to RTV4: 20 days
D384Med xenografts; D384Med, mice with regression/group, transient
  Complete regressions: 0/5
D384Med xenografts; D384Med, versus control time to RTV4
  Tumour growth delay: 4 days
